Activity calls are given as the source filed them. No stated cut-off is given here; in the data, actives have a measured IC50 and inactives only a lower limit.
target: Envelope glycoprotein gp160 (Human immunodeficiency virus 1, UniProt Q6QLK5); assay: inhibitors of HIV fusion peptide binding, primary screen, biochemical, uHTS, fluorescence dequenching (AID 1986)
Sequence (Q6QLK5 whole entry, the tested form may be a part): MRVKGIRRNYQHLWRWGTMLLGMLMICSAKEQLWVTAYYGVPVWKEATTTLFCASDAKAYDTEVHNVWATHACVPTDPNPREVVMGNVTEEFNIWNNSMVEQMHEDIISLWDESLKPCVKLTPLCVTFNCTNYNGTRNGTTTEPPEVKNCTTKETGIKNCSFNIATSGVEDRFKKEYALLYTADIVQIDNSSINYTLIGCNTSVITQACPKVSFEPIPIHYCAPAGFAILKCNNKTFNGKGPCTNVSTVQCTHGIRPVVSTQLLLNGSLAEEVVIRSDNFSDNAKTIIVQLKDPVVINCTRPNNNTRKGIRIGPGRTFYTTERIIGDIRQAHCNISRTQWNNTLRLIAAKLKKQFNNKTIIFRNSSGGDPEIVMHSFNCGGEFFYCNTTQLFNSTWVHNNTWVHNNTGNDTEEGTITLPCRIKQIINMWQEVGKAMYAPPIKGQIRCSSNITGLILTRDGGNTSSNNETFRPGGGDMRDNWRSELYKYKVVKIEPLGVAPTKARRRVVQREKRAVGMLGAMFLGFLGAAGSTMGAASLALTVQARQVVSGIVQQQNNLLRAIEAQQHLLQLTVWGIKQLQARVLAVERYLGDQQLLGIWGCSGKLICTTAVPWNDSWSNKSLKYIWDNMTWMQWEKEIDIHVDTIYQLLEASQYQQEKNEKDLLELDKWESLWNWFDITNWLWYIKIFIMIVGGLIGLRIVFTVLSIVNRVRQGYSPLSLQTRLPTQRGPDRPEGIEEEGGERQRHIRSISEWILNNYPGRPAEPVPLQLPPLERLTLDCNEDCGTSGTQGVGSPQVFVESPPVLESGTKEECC

SMILES	IC50
CS(=O)(=O)C1=NSC2=NC(=O)/C(=C\c3cccn3-c3ccc(Cl)cc3)C(=N)N21	18.5 µM (active)
CC(C)CS(=O)(=O)C1=NSC2=NC(=O)/C(=C\c3ccc(OC(=O)c4ccco4)cc3)C(=N)N21	15.6 µM (active)
CSc1ccc(C(c2c(C(=O)O)[nH]c3ccccc23)c2c(C(=O)O)[nH]c3ccccc23)cc1	8.99 µM (active)
CCOc1ccc(CCNC(=O)c2ccc3c(=O)[nH]c4c(C(=O)NC(C)C)sc(=S)n4c3c2)cc1	62.5 µM (active)
COc1cc([N+](=O)[O-])cc(/C=N/NC(=O)c2cc(-c3ccccc3)nc3ccccc23)c1O	30.3 µM (active)
